The record followed here is US20240158348A1, “HERBICIDAL CYCLIC AMIDES N-SUBSTITUTED WITH A HALOALKYLSULFONYLANILIDE GROUP” (FMC Corporation, priority 2021, published 2024).

SMILES strings stand for the structures.

By melting point is commonly meant the temperature, or range, at which the solid turns liquid.

Data set [1] has as its system blackgrass (Alopecurus myosuroides). The experiment in a line: Test A postemergence, blackgrass. It is filed as in vivo. As to conditions: 0 to 100 scale, 10 days. The text has this:
(§1) Seeds of plant species selected from barnyardgrass (Echinochloa crus-galli), blackgrass (Alopecurus myosuroides), corn (Zea mays), foxtail, giant (giant foxtail, Setaria faberi), goosegrass (Eleusine indica), kochia (Bassia scoparia), oat, wild (wild oat, Avena fatua), pigweed, palmer (palmer amaranth, Amaranthus palmeri), pigweed, redroot (redroot pigweed, Amaranthus retroflexus), ragweed (common ragweed, Ambrosia artemisiifolia), ryegrass, Italian (Italian ryegrass, Lolium multiflorum), soybean (Glycine max), and wheat (Triticum aestivum) were planted into a blend of loam soil and sand and treated preemergence with a directed soil spray using test chemicals formulated in a non-phytotoxic solvent mixture which included a surfactant.
(§2) At the same time, plants selected from these crop and weed species and also galium (catchweed bedstraw, Galium aparine) and horseweed (Erigeron canadensis) were planted in pots containing the same blend of loam soil and sand and treated with postemergence applications of test chemicals formulated in the same manner. Plants ranged in height from 2 to 10 cm and were in the one- to two-leaf stage for the postemergence treatment. Treated plants and untreated controls were maintained in a greenhouse for 10 days, after which time all treated plants were compared to untreated controls and visually evaluated for injury. Plant response ratings, summarized in Table A, are based on a 0 to 100 scale where 0 is no effect and 100 is complete control. A dash (-) response means no test result.

Data set [2] deals with ducksalad (Heteranthera limosa). In words: Test B flooded paddy test, ducksalad. It is filed as in vivo. Conditions: 250 g ai/ha, Flood, scale of 0 to 100 where 0 is no effect and 100 is complete control, visually evaluated after 10 to 14 days, read-out: Plant response rating, Ducksalad. Here is the method: Plant species in the flooded paddy test selected from barnyardgrass (Echinochloa crusgalli), ducksalad (Heteranthera limosa), rice (Oryza sativa), and sedge, umbrella (small-flower umbrella sedge, Cyperus difformis) were grown to the 2-leaf stage for testing. At time of treatment, test pots were flooded to 3 cm above the soil surface, treated by application of test compounds directly to the paddy water, and then maintained at that water depth for the duration of the test. Treated plants and controls were maintained in a greenhouse for 10 to 14 days, after which time all species were compared to controls and visually evaluated. Plant response ratings, summarized in Table B, are based on a scale of 0 to 100 where 0 is no effect and 100 is complete control. A dash (-) response means no test result.

The subject of data set [3] is kochia (Bassia scoparia). In words: Test A postemergence, kochia. The data set is classed as in vivo. As to conditions: post-emergence, 240 h, 0 to 100 scale, 10 days, read-out: Plant response rating, Kochia; for pest or weed control at 31 g/ha: 31 g ai/ha; for pest or weed control at 125 g/ha: 125 g ai/ha.
Text: as §1, §2

For the next data set, the system named is corn (Zea mays). In words: Test A postemergence, corn. Conditions: post-emergence, 240 h, 0 to 100 scale, 10 days; for Corn plant response rating (crop injury, 0 = no effect, 100 = complete kill) at 31 g/ha: 31 g ai/ha; for Corn plant response rating (crop injury, 0 = no effect, 100 = complete kill) at 125 g/ha: 125 g ai/ha. The data set is classed as in vivo.
Text: as §1, §2

In data set [4] the test system is ryegrass, Italian (Italian ryegrass, Lolium multiflorum). The experiment in a line: Test A preemergence, Italian ryegrass. It is filed as in vivo. As to conditions: pre-emergence, 240 h, 0 to 100 scale, 10 days, read-out: Plant response rating, Ryegrass, Italian; for pest or weed control at 31 g/ha: 31 g ai/ha; for pest or weed control at 125 g/ha: 125 g ai/ha.
Text: as §1, §2

The test system is the same in data set [5]. The experiment in a line: Test A postemergence, Italian ryegrass. It is filed as in vivo. As to conditions: post-emergence, 240 h, 0 to 100 scale, 10 days, read-out: Plant response rating, Ryegrass, Italian; for pest or weed control at 31 g/ha: 31 g ai/ha; for pest or weed control at 125 g/ha: 125 g ai/ha.
Text: as §1, §2

Data set [6] has as its system kochia (Bassia scoparia). In words: Test A preemergence, kochia. It is filed as in vivo. Conditions: pre-emergence, 240 h, 0 to 100 scale, 10 days, read-out: Plant response rating, Kochia; for pest or weed control at 31 g/ha: 31 g ai/ha; for pest or weed control at 125 g/ha: 125 g ai/ha.
Text: as §1, §2

For data set [7], the system named is goosegrass (Eleusine indica). The experiment in a line: Test A preemergence, goosegrass. The data set is classed as in vivo. Conditions: 0 to 100 scale, 10 days.
Text: as §1, §2

A further data set concerns soybean (Glycine max). In words: Test A postemergence, soybean. Conditions: 0 to 100 scale, 10 days. The data set is classed as in vivo.
Text: as §1, §2

Data set [8] relates to blackgrass (Alopecurus myosuroides). The experiment in a line: Test A preemergence, blackgrass. As to conditions: 0 to 100 scale, 10 days. The data set is classed as in vivo.
Text: as §1, §2

Compound `C=CCOC1CCN(c2cc(NS(=O)(=O)C(F)(F)F)c(C)cc2C)C1=O` (stereo not shown) [Compound 2, N-[2,4-dimethyl-5-[2-oxo-3-(2-propen-1-yloxy)-1-pyrrolidinyl]phenyl]-1,1,1-trifluoromethanesulfonamide] had a melting point of 134 to 137 °C. In addition, in data set [1] (31 g ai/ha), the “Plant response rating, Blackgrass” value worked out at 20. Also, the “Plant response rating, Blackgrass” value in [1] (125 g ai/ha) is listed as 40. For the same compound, the pest or weed control at 250 g/ha in data set [2] was 75%. In the data set on kochia (Bassia scoparia) [3], the pest or weed control at 31 g/ha worked out at 20% and the pest or weed control at 125 g/ha amounted to 60%. In the data set with corn (Zea mays), this compound displayed a Corn plant response rating (crop injury, 0 = no effect, 100 = complete kill) at 31 g/ha of 0% and a Corn plant response rating (crop injury, 0 = no effect, 100 = complete kill) at 125 g/ha of 90%. Further, in data set [4], the pest or weed control at 31 g/ha stood at 90% and the pest or weed control at 125 g/ha was found to be 100%. Besides, in data set [5], the pest or weed control at 31 g/ha worked out at 70% and the pest or weed control at 125 g/ha is 70%. Besides, in the data set on kochia (Bassia scoparia) [6], the pest or weed control at 31 g/ha worked out at 50% and the pest or weed control at 125 g/ha was 90%.

`Cc1cc(C)c(N2CCC(OC3CC3)C2=O)cc1NS(=O)(=O)C(F)(F)F` (stereo not shown) [Compound 3, N-[5-[3-(cyclopropyloxy)-2-oxo-1-pyrrolidinyl]-2,4-dimethylphenyl]-1,1,1-trifluoromethanesulfonamide] gave a melting point of 171 to 174 °C. Besides, the “Plant response rating, Blackgrass” value in [1] (31 g ai/ha) was determined as 40. Besides, the “Plant response rating, Blackgrass” value in [1] (125 g ai/ha) turned out to be 70. Also, the pest or weed control at 250 g/ha in data set [2] was 98%. In data set [7] (31 g ai/ha), the “Plant response rating, Goosegrass” value is 70. In [7] (125 g ai/ha), the “Plant response rating, Goosegrass” value turned out to be 100. The “Plant response rating, Soybean” value in the data set with soybean (Glycine max) (31 g ai/ha) turned out to be 60. For the same compound, the “Plant response rating, Soybean” value in the data set with soybean (Glycine max) (125 g ai/ha) came out at 70. In the data set with kochia (Bassia scoparia) [3], the pest or weed control at 31 g/ha came out at 50% and the pest or weed control at 125 g/ha was determined as 100%. In the data set on corn (Zea mays), this compound displayed a Corn plant response rating (crop injury, 0 = no effect, 100 = complete kill) at 31 g/ha of 90% and a Corn plant response rating (crop injury, 0 = no effect, 100 = complete kill) at 125 g/ha of 90%. For the same compound, in data set [4], the pest or weed control at 31 g/ha came out at 90% and the pest or weed control at 125 g/ha is 100%. For the same compound, in data set [5], the pest or weed control at 31 g/ha was 90% and the pest or weed control at 125 g/ha was found to be 90%. Besides, in data set [8] (31 g ai/ha), the “Plant response rating, Blackgrass” value is on record as 80. Besides, the “Plant response rating, Blackgrass” value in data set [8] (125 g ai/ha) is reported as 100. Also, in the data set on kochia (Bassia scoparia) [6], the pest or weed control at 31 g/ha turned out to be 100% and the pest or weed control at 125 g/ha stood at 100%.

The compound `Cc1cc(C)c(N2CCC(OC3CCC3)C2=O)cc1NS(=O)(=O)C(F)(F)F` (stereo not shown) [Compound 4, N-[5-[3-(cyclobutyloxy)-2-oxo-1-pyrrolidinyl]-2,4-dimethylphenyl]-1,1,1-trifluoromethanesulfonamide] had a melting point of 166 to 169 °C. Also, in data set [2], the pest or weed control at 250 g/ha was determined as 100%. Also, the “Plant response rating, Goosegrass” value in data set [7] (31 g ai/ha) amounted to 100. Further, the “Plant response rating, Goosegrass” value in data set [7] (125 g ai/ha) turned out to be 100. Moreover, in the data set on soybean (Glycine max) (31 g ai/ha), the “Plant response rating, Soybean” value came out at 50. In the data set on soybean (Glycine max) (125 g ai/ha), the “Plant response rating, Soybean” value is given as 70. Also, in the data set on kochia (Bassia scoparia) [3], the pest or weed control at 31 g/ha was 60% and the pest or weed control at 125 g/ha was determined as 90%. For the same compound, in the data set on corn (Zea mays), the Corn plant response rating (crop injury, 0 = no effect, 100 = complete kill) at 31 g/ha worked out at 90% and the Corn plant response rating (crop injury, 0 = no effect, 100 = complete kill) at 125 g/ha amounted to 0%. Moreover, in data set [4], the pest or weed control at 31 g/ha came out at 100% and the pest or weed control at 125 g/ha is 100%. Moreover, in data set [5], the pest or weed control at 31 g/ha came to 80% and the pest or weed control at 125 g/ha was 80%. Further, the “Plant response rating, Blackgrass” value in data set [8] (31 g ai/ha) is on record as 20. Further, in [8] (125 g ai/ha), the “Plant response rating, Blackgrass” value worked out at 90. Besides, in the data set on kochia (Bassia scoparia) [6], the pest or weed control at 31 g/ha is 70% and the pest or weed control at 125 g/ha was 100%.
